Reference: paper PMC6895048, “4,5-Disubstituted 1,2,3-triazoles: Effective Inhibition of Indoleamine 2,3-Dioxygenase 1 Enzyme Regulates T cell Activity and Mitigates Tumor Growth” (Scientific Reports, 2019)

Tests used:
IDO1 [1] = target: T1, IDO1 (Homo sapiens, UniProt P14902); assay: Cellular IDO1 activity assay in IFN-γ induced MDA-MB-231 cells; type: cell-based; parameters: induce the expression of the native IDO1 enzyme from its mRNA in the MDA-MB-231 cells; endogenous in cells; host or cells: MDA-MB-231 cells induced with human IFN-γ (50 ng/mL); conditions: IDO1 expression induced by human IFN-γ (50 ng/mL); mean of three
Method: The cellular enzyme activity assay was performed according to the reported procedure with minor modifications[19],[27]–[30],[33],[54]. Briefly, MDA-MB-231 breast cancer cells were selected for this assay because of the presence of IDO1 mRNA in this cell line. First, cells were grown in DMEM/F12 complete media overnight. Then different concentration of human interferon-gamma (IFN-γ) (from 5–1000 ng/mL) was added to it and incubated for 48 hours. This treatment is reported to allow over-expression of IDO1 enzyme in MDA-MB-231 cells. […] Sterile cell-culture grade PBS was used to wash the cells by centrifugation technique. Then, the pellet was lysed in 10 mM HEPES buffer by passing through a sterile syringe. The lysate was used for standard IDO1 assay as mentioned earlier. The relative amount of N-formylkynurenine generated in the presence of the different concentration of IFN-γ was used to optimize the required concentration of IFN-γ for the IDO1 inhibition assay. […] Cells stimulated with IFN-γ alone were used as negative control, while cells stimulated with L-Trp without compound served as positive control. The cells were washed with sterile cell culture grade PBS and lysed in 10 mM HEPES buffer by sterile syringe. The lysate was used for standard IDO1 assay, as mentioned earlier, and the extent of IDO1 enzyme inhibition was determined for the selected compounds.

CD8+ T cells = assay: T cell activity in breast tumor micro-environment (flow cytometry); type: cell-based, human; conditions: 50 μM; for regulation of CD8+ T cells in tumor micro-environment: 20% MDA-MB-231 conditioned medium, 48 hours; for regulation of effector memory CD8+ T cells in tumor micro-environment: CCR7lowCD45RAlow phenotype
Method: We designed this study to evaluate the effects of IDO1 inhibition on cytotoxic T cells present in the breast tumor micro-environment. To mimic breast tumor micro-environment, we used 20% conditioned medium of human metastatic breast cancer cell line MDA-MB-231 with fresh RPMI and 10% FBS. Freshly isolated PBL cells were stimulated with PMA and ionomycin prior to culture in 20% conditioned medium and compounds at selected concentrations. Drug treatment was done for 48 hours followed by immunophenotyping by flow cytometry. For cell proliferation experiments freshly isolated PBLs were cultured in RPMI with 10% FBS and inhibitors for 48 hours. After that the cells were counted with hemocytometer. All the experiments were repeated thrice before analyzing data. The concentration of the compounds was 50 μM for all the T cell activity studies. All the T cell culture related experiments were conducted in the designated biosafety level facility available at the University of Calcutta.
Peripheral blood lymphocyte was isolated from freshly isolated blood samples of healthy volunteers in a previously described protocol. Briefly, blood was diluted with equal volume of sterile PBS and allowed in density gradient centrifugation over histopaque. Isolated PBLs were washed and cultured in RPMI medium with 10% FBS. Peripheral blood lymphocytes (PBLs) were isolated from fresh blood of healthy volunteers and cultured in RPMI medium with or without compound at selected concentration for 48 hours. Treatment of the compound uplifted cell proliferation. To evaluate whether 4,5-disubstituted 1,2,3-triazole regulate T cell activity, PBL was isolated and cultured at 20% conditioned medium of human metastatic breast cancer cell line MDA-MB-231. To perform this experiment PBL was isolated from three healthy volunteers and three independent experiments were performed. All the volunteers signed informed consent form[45],[49].
The T cells were activated according to standardized protocol published elsewhere. 100 ng/mL PMA and 1 μg/mL ionomycin were used to stimulate the T cells for 2 hrs. PBLs freshly cultured in RPMI with 10% FBS was added in the culture plate at 2 × 10^5 cells/ well and cultured at 37 °C with 5% CO2 for the duration of activation.
After treatment for given period of time the lymphocytes were analyzed for alteration of protein expression by flow cytometry according to previously published protocols. Briefly the cells were pelleted down resuspended in cell staining buffer. After cell counting cells were stained against PE-CD8 (Miltenyi Bioteh.), PerCP-Cy 5.5-CCR-7 (Miltenyi Bioteh.), APC-CD45RA (Miltenyi Bioteh.), VioBright-FITC-PD-1 (Miltenyi Bioteh.) antibodies as per the manufacturer recommended concentration and incubated in ice for given period of time. Post incubation, the cells were washed, suspended in cell staining buffer before data was acquired using FACS-Verse flow cytometer. The results were analyzed with FlowJo software (v X.0.7). The experiments were repeated thrice prior data analysis.

IDO1 [2] = target: T1, IDO1; assay: Equilibrium surface plasmon resonance (SPR) analysis; type: binding; parameters: made in house; host or cells: Escherichia coli M15 (pQE30 vector with pREP4 plasmid); conditions: PBS buffer pH 7.4, triplicate
Method: The surface plasmon resonance (SPR) analysis was carried out according to the reported procedure with minor modifications[34],[52]. In brief, the measurements were performed at 25 °C on the Biacore-X100 instrument using CM5 sensor chip (GE Healthcare). PBS buffer at pH 7.4 was used as running buffer. The surface of the CM5 sensor chip was first modified with Anti-His Antibody using amine-coupling kit at a flow rate of 30 µL/ minute, followed by IDO1 enzyme (30 µg/mL) immobilization using His-capture kit at a flow rate of 10 µL/minute for 2 minutes. The IDO1 enzyme capture level was 4000 response units (RU). The binding efficacy (association constant; ka) of the compounds was determined by measuring the change in RU of the SPR sensorgram in absence or presence of the compounds (0 to 50 µM).
Figure S1. Measurements of compound binding affinity of the human IDO1 enzyme by […]
equilibrium SPR analysis.
(D), respectively injected over the biosensor chip surface-immobilized with IDO-1 protein are indicated. PBS buffer at pH 7.4 was used for all measurements. Binding isotherm was generated from the Req (average of triplicate measurements) versus the concentration of […] plot. Kd values determined by nonlinear least-squares analysis of the isotherm using the following equation: Req = Rmax/(1 + Kd/P).
Table S3. IDO1 binding affinity of various compounds determined from equilibrium SPR […]
(1 picture or pasted object on this page, not shown here)

T1 sequence (P14902 whole entry): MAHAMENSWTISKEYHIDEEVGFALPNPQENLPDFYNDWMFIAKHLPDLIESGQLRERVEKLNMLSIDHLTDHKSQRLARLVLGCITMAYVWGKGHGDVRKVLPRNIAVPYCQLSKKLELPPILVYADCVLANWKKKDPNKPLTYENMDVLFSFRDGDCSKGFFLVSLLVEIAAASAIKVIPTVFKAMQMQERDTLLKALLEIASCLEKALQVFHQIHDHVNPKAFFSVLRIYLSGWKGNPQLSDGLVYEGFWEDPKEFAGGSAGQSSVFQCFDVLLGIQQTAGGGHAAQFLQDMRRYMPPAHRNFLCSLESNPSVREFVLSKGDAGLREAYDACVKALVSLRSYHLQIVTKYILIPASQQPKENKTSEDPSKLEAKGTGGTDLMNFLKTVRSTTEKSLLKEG

| EC50 (IDO1 [1]) [µM] | Kd (IDO1 [2]) [µM] | SMILES | PD-1 expression on CD8+ T cells in tumor micro-environment (CD8+ T cells) | regulation of CD8+ T cells in tumor micro-environment (CD8+ T cells) | regulation of effector memory CD8+ T cells in tumor micro-environment (CD8+ T cells) |
| --- | --- | --- | --- | --- | --- |
| 0.162 ± 0.015 | 61.7 ± 6.07 | CCOC(=O)c1n[nH]nc1-c1ccc(F)c(F)c1 [Compound 2i] | Down-regulation | Up-regulation | Up-regulation |
| 0.088 ± 0.01 | 40.2 ± 4.99 | O=C(N/C(Cc1ccc(O)cc1)=N\O)c1n[nH]nc1-c1ccc(F)c(F)c1 [Compound 4i] | Down-regulation | Up-regulation | Up-regulation |
| 0.077 ± 0.005 | 49.1 ± 8.51 | NS(=O)(=O)NCCNC(=O)c1n[nH]nc1-c1ccc(F)c(F)c1 [Compound 4k] | Down-regulation | Up-regulation | Up-regulation |
| 0.074 ± 0.017 | 34.5 ± 5.21 | NC(=O)c1n[nH]nc1-c1ccc(F)c(F)c1 [Compound 3i] | Down-regulation | Up-regulation | Up-regulation |
